Data published in ChEMBL document CHEMBL1156506, “Changes to the HIV long terminal repeat and to HIV integrase differentially impact HIV integrase assembly, activity, and the binding of strand transfer inhibitors” (J Biol Chem, 2007).

Experiments:
[1] = test system: Human immunodeficiency virus; assay: Inhibition of HIV wild type integrase assessed as strand transfer activity using U5 GTTC LTR by scintillation proximity assay relative to wild type LTR; parameters: scale not given: the % may be the effect or the level left; conditions: tested as the 3H-labelled form
[2] = test system: Human immunodeficiency virus; assay: Inhibition of HIV wild type integrase assessed as strand transfer activity using U5 GTGC LTR by scintillation proximity assay relative to wild type LTR; parameters: scale not given: the % may be the effect or the level left; conditions: tested as the 3H-labelled form
[3] = test system: Human immunodeficiency virus type 1 integrase (Human immunodeficiency virus 1), Q7ZJM1 [N155H]; assay: Binding affinity to HIV recombinant integrase N155H mutant using U5 TTCA LTR relative to wild type LTR; conditions: tested as the 3H-labelled form
[4] = test system: Human immunodeficiency virus type 1 integrase (Human immunodeficiency virus 1), Q7ZJM1 [N155H]; assay: Binding affinity to HIV recombinant integrase N155H mutant using U5 GddA LTR relative to wild type LTR; conditions: tested as the 3H-labelled form
[5] = test system: Human immunodeficiency virus type 1 integrase (Human immunodeficiency virus 1), Q7ZJM1 [N155H]; assay: Inhibition of HIV recombinant integrase N155H mutant assessed as specific strand transfer activity using U5 GTdA LTR by scintillation proximity assay relative to wild type LTR; parameters: scale not given: the % may be the effect or the level left; conditions: tested as the 3H-labelled form
[6] = Inhibition of HIV wild type integrase DNA complex; parameters: species or system Human immunodeficiency virus
[7] = test system: Human immunodeficiency virus; assay: Inhibition of HIV wild type integrase assessed as strand transfer activity using U5 GTCA LTR by scintillation proximity assay relative to wild type LTR; parameters: scale not given: the % may be the effect or the level left; conditions: tested as the 3H-labelled form
[8] = test system: Human immunodeficiency virus; assay: Binding affinity to U5 GTCT LTR HIV wild type integrase using U5 GTCT LTR relative to wild type LTR; conditions: tested as the 3H-labelled form
[9] = test system: Human immunodeficiency virus; assay: Binding affinity to HIV wild type integrase using U5 GTCC LTR relative to wild type LTR; conditions: tested as the 3H-labelled form
[10] = test system: Human immunodeficiency virus; assay: Inhibition of HIV wild type integrase assessed as strand transfer activity using U5 GTGA LTR by scintillation proximity assay relative to wild type LTR; parameters: scale not given: the % may be the effect or the level left; conditions: tested as the 3H-labelled form
[11] = test system: Human immunodeficiency virus type 1 integrase (Human immunodeficiency virus 1), Q7ZJM1 [N155H]; assay: Inhibition of HIV recombinant integrase N155H mutant assessed as strand transfer activity using U5 ApTCA LTR by scintillation proximity assay relative to wild type LTR; parameters: scale not given: the % may be the effect or the level left; conditions: tested as the 3H-labelled form
[12] = test system: Human immunodeficiency virus type 1 integrase (Human immunodeficiency virus 1), Q7ZJM1 [N155H]; assay: Inhibition of HIV recombinant integrase N155H mutant assessed as strand transfer activity using U5 GddA LTR by scintillation proximity assay relative to wild type LTR; parameters: scale not given: the % may be the effect or the level left; conditions: tested as the 3H-labelled form
[13] = test system: Human immunodeficiency virus type 1 integrase (Human immunodeficiency virus 1), Q7ZJM1 [N155H]; assay: Inhibition of HIV recombinant integrase N155H mutant assessed as specific strand transfer activity using U5 TTCA LTR by scintillation proximity assay relative to wild type LTR; parameters: scale not given: the % may be the effect or the level left; conditions: tested as the 3H-labelled form
[14] = test system: Human immunodeficiency virus type 1 integrase (Human immunodeficiency virus 1), Q7ZJM1 [Q148R]; assay: Inhibition of HIV recombinant integrase Q148R mutant assessed as strand transfer activity using U5 GTC LTR by scintillation proximity assay relative to wild type LTR; parameters: scale not given: the % may be the effect or the level left; conditions: tested as the 3H-labelled form
[15] = test system: Human immunodeficiency virus type 1 integrase (Human immunodeficiency virus 1), Q7ZJM1 [Q148R]; assay: Inhibition of HIV recombinant integrase Q148R mutant assessed as strand transfer activity using U5 GdCA LTR by scintillation proximity assay relative to wild type LTR; parameters: scale not given: the % may be the effect or the level left; conditions: tested as the 3H-labelled form
[16] = test system: Human immunodeficiency virus type 1 integrase (Human immunodeficiency virus 1), Q7ZJM1 [Q148R]; assay: Inhibition of HIV recombinant integrase Q148R mutant assessed as strand transfer activity using U5 TTCA LTR by scintillation proximity assay relative to wild type LTR; parameters: scale not given: the % may be the effect or the level left; conditions: tested as the 3H-labelled form
[17] = test system: Human immunodeficiency virus type 1 integrase (Human immunodeficiency virus 1), Q7ZJM1 [Q148R]; assay: Binding affinity to HIV recombinant integrase Q148R mutant using U5 GTC LTR relative to wild type LTR; conditions: tested as the 3H-labelled form
[18] = test system: Human immunodeficiency virus type 1 integrase (Human immunodeficiency virus 1), Q7ZJM1 [Q148R]; assay: Binding affinity to HIV recombinant integrase Q148R mutant using U5 ApTCA LTR relative to wild type LTR; conditions: tested as the 3H-labelled form
[19] = test system: Human immunodeficiency virus type 1 integrase (Human immunodeficiency virus 1), Q7ZJM1 [Q148R]; assay: Inhibition of U5 GdCA LTR HIV recombinant integrase Q148R mutant assessed as specific strand transfer activity using by scintillation proximity assay relative to wild type LTR; parameters: scale not given: the % may be the effect or the level left; conditions: tested as the 3H-labelled form
[20] = test system: Human immunodeficiency virus type 1 integrase (Human immunodeficiency virus 1), Q7ZJM1 [Q148R]; assay: Inhibition of U5 TTCA LTR HIV recombinant integrase Q148R mutant assessed as specific strand transfer activity using by scintillation proximity assay relative to wild type LTR; parameters: scale not given: the % may be the effect or the level left; conditions: tested as the 3H-labelled form
[21] = test system: Human immunodeficiency virus type 1 integrase (Human immunodeficiency virus 1), Q7ZJM1 [Q148R]; assay: Inhibition of U5 ApTCA LTR HIV recombinant integrase Q148R mutant assessed as specific strand transfer activity using by scintillation proximity assay relative to wild type LTR; parameters: scale not given: the % may be the effect or the level left; conditions: tested as the 3H-labelled form
[22] = test system: Human immunodeficiency virus; assay: Inhibition of HIV wild type integrase assessed as strand transfer activity using U5 GTdA LTR by scintillation proximity assay relative to wild type LTR; parameters: scale not given: the % may be the effect or the level left; conditions: tested as the 3H-labelled form
[23] = test system: Human immunodeficiency virus; assay: Inhibition of HIV wild type integrase assessed as strand transfer activity using U5 GdC LTR by scintillation proximity assay relative to wild type LTR; parameters: scale not given: the % may be the effect or the level left; conditions: tested as the 3H-labelled form
[24] = test system: Human immunodeficiency virus; assay: Binding affinity to HIV wild type integrase using U5 GdCA LTR relative to wild type LTR; conditions: tested as the 3H-labelled form
[25] = test system: Human immunodeficiency virus; assay: Binding affinity to HIV wild type integrase using U5 dTCA LTR relative to wild type LTR; conditions: tested as the 3H-labelled form
[26] = test system: Human immunodeficiency virus; assay: Binding affinity to HIV wild type integrase using U5 INTCA LTR relative to wild type LTR; conditions: tested as the 3H-labelled form
[27] = test system: Human immunodeficiency virus; assay: Binding affinity to HIV wild type integrase using U5 GddA LTR relative to wild type LTR; conditions: tested as the 3H-labelled form
[28] = test system: Human immunodeficiency virus; assay: Binding affinity to HIV wild type integrase using U5 GInCA LTR relative to wild type LTR; conditions: tested as the 3H-labelled form
[29] = test system: Human immunodeficiency virus; assay: Inhibition of HIV wild type integrase assessed as strand transfer activity using U5 GTAG LTR by scintillation proximity assay relative to wild type LTR; parameters: scale not given: the % may be the effect or the level left; conditions: tested as the 3H-labelled form
[30] = test system: Human immunodeficiency virus; assay: Binding affinity to HIV wild type integrase using U5 GTAG LTR relative to wild type LTR; conditions: tested as the 3H-labelled form
[31] = test system: Human immunodeficiency virus; assay: Binding affinity to HIV wild type integrase U5 GACA/CT LTR relative to wild type LTR; conditions: tested as the 3H-labelled form
[32] = test system: Human immunodeficiency virus; assay: Inhibition of HIV wild type integrase assessed as strand transfer activity using U5 ATCA LTR by scintillation proximity assay relative to wild type LTR; parameters: scale not given: the % may be the effect or the level left; conditions: tested as the 3H-labelled form
[33] = test system: Human immunodeficiency virus; assay: Inhibition of HIV wild type integrase assessed as strand transfer activity U5 CTCA LTR by scintillation proximity assay relative to wild type LTR; parameters: scale not given: the % may be the effect or the level left; conditions: tested as the 3H-labelled form
[34] = test system: Human immunodeficiency virus; assay: Inhibition of HIV wild type integrase assessed as strand transfer activity using U5 GTCA/CG LTR by scintillation proximity assay relative to wild type LTR; parameters: scale not given: the % may be the effect or the level left; conditions: tested as the 3H-labelled form
[35] = test system: Human immunodeficiency virus; assay: Binding affinity to HIV wild type integrase using U5 GTCA/CG LTR relative to wild type LTR; conditions: tested as the 3H-labelled form
[36] = test system: Human immunodeficiency virus; assay: Binding affinity to HIV wild type integrase using U5 GTCA/C LTR relative to wild type LTR; conditions: tested as the 3H-labelled form
[37] = test system: Human immunodeficiency virus; assay: Inhibition of HIV wild type integrase assessed as specific strand transfer activity using U5 GTC LTR by scintillation proximity assay relative to wild type LTR; parameters: scale not given: the % may be the effect or the level left; conditions: tested as the 3H-labelled form
[38] = test system: Human immunodeficiency virus; assay: Inhibition of HIV wild type integrase assessed as specific strand transfer activity using U5 GTdA LTR by scintillation proximity assay relative to wild type LTR; parameters: scale not given: the % may be the effect or the level left; conditions: tested as the 3H-labelled form
[39] = test system: Human immunodeficiency virus; assay: Inhibition of HIV wild type integrase assessed as specific strand transfer activity using U5 TTCA LTR by scintillation proximity assay relative to wild type LTR; parameters: scale not given: the % may be the effect or the level left; conditions: tested as the 3H-labelled form
[40] = test system: Human immunodeficiency virus; assay: Inhibition of HIV wild type integrase assessed as specific strand transfer activity using U5 ApTCA LTR by scintillation proximity assay relative to wild type LTR; parameters: scale not given: the % may be the effect or the level left; conditions: tested as the 3H-labelled form
[41] = test system: Human immunodeficiency virus; assay: Inhibition of HIV wild type integrase assessed as specific strand transfer activity using U5 GddA LTR by scintillation proximity assay relative to wild type LTR; parameters: scale not given: the % may be the effect or the level left; conditions: tested as the 3H-labelled form
[42] = test system: Human immunodeficiency virus type 1 integrase (Human immunodeficiency virus 1), Q7ZJM1 [N155H]; assay: Inhibition of HIV recombinant integrase N155H mutant assessed as strand transfer activity using U5 GTCA LTR by scintillation proximity assay relative to wild type LTR; parameters: scale not given: the % may be the effect or the level left; conditions: tested as the 3H-labelled form
[43] = test system: Human immunodeficiency virus type 1 integrase (Human immunodeficiency virus 1), Q7ZJM1 [N155H]; assay: Inhibition of HIV recombinant integrase N155H mutant assessed as strand transfer activity using U5 GdCA LTR by scintillation proximity assay relative to wild type LTR; parameters: scale not given: the % may be the effect or the level left; conditions: tested as the 3H-labelled form
[44] = test system: Human immunodeficiency virus type 1 integrase (Human immunodeficiency virus 1), Q7ZJM1 [N155H]; assay: Inhibition of HIV recombinant integrase N155H mutant assessed as strand transfer activity using U5 dTCA LTR by scintillation proximity assay relative to wild type LTR; parameters: scale not given: the % may be the effect or the level left; conditions: tested as the 3H-labelled form

Cn1c(N2CCCCS2(=O)=O)nc(C(=O)NCc2ccc(F)cc2)c(O)c1=O [BMS-707035]
Activity [1]: 25%
Activity [2]: 25%
Activity [3]: 1%
Activity [4]: 9%
Activity [5]: 35%
Ki [6]: 17 nM
Activity [7]: 75%
Activity [8]: 75%
Activity [9]: 75%
Activity [10]: 90%
Activity [11]: 2%
Activity [12]: 0.6%
Activity [13]: > 20%
Activity [14]: 19%
Activity [15]: 0.6%
Activity [16]: 4%
Activity [17]: 5%
Activity [18]: 0.5%
Activity [19]: 3%
Activity [20]: > 80%
Activity [21]: > 8%
Activity [22]: 32%
Activity [23]: 10%
Activity [24]: 40%
Activity [25]: 15%
Activity [26]: 62%
Activity [27]: 35%
Activity [28]: 28%
Activity [29]: < 25%
Activity [30]: < 25%
Activity [31]: < 25%
Activity [32]: 75%
Activity [33]: 40%
Activity [34]: < 25%
Activity [35]: 25%
Activity [36]: < 25%
Activity [37]: 100%
Activity [38]: 42%
Activity [39]: 154%
Activity [40]: 40%
Activity [41]: 3%
Activity [42]: 84%
Activity [43]: 33%
Activity [44]: 2%
